# Assays:
# [1] = test system: oilseed rape; test: Test C pre-/postemergence herbicide test; type: in vivo, Brassica napus
# Method in brief: (§1)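 Compound solutions contained surfactant in a non-phytotoxic solvent. These were sprayed onto pots of loam/sand sown with seeds, and onto young plants (2 to 18 cm, 1- to 4-leaf) in sphagnum peat–vermiculite mix. Visual injury scores (0 none, 100 complete control) were recorded after 13 to 15 days.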
# [2] = test system: crabgrass, large; test: Test C pre-/postemergence herbicide test; type: in vivo, Digitaria sanguinalis
# Method in brief: as §1
# [3] = test system: ducksalad; test: Test B flooded paddy test; type: in vivo, Heteranthera limosa; conditions: 500 g ai/ha, Flood; scale of 0 to 100 where 0 is no effect and 100 is complete control
# Method in brief: (§2)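 In-water application to pots flooded 3 cm deep, plants at 2-leaf stage. Held in greenhouse 13–15 days at constant flood depth. Scored 0–100 by eye against controls.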
# [4] = test system: blackgrass; test: Test C pre-/postemergence herbicide test; type: in vivo, Alopecurus myosuroides
# Method in brief: as §1
# [5] = test system: nutsedge, yellow; test: Test C pre-/postemergence herbicide test; type: in vivo, Cyperus esculentus
# Method in brief: as §1
# [6] = test system: barnyardgrass; test: Test B flooded paddy test; type: in vivo, Echinochloa crus-galli; conditions: 500 g ai/ha, Flood; scale of 0 to 100 where 0 is no effect and 100 is complete control
# Method in brief: as §2
# [7] = test system: giant foxtail; test: Test A pre-/postemergence herbicide test; type: in vivo, Setaria faberii
# Method in brief: (§3)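 Formulated compound (non-phytotoxic solvent, surfactant) sprayed pre- onto soil of seeded loam/sand pots or post- onto seedlings at 1–2 leaves; ~10 d greenhouse; 0–100 visual control rating versus untreated.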
# [8] = test system: barnyardgrass; test: Test C pre-/postemergence herbicide test; type: in vivo, Echinochloa crus-galli
# Method in brief: as §1
# [9] = test system: rice; test: Test B flooded paddy test; type: in vivo, Oryza sativa; conditions: 500 g ai/ha, Flood; scale of 0 to 100 where 0 is no effect and 100 is complete control
# Method in brief: as §2
# [10] = test system: wheat; test: Test A pre-/postemergence herbicide test; type: in vivo, Triticum aestivum; conditions: Postemergence
# Method in brief: as §3
# [11] = test system: lambsquarters; test: Test C pre-/postemergence herbicide test; type: in vivo, Chenopodium album
# Method in brief: as §1
# [12] = test system: pigweed; test: Test C pre-/postemergence herbicide test; type: in vivo, Amaranthus retroflexus
# Method in brief: as §1
# [13] = Postemergence, 16 g ai/ha, scale 0 to 100 (0 no effect, 100 complete control)
# [14] = Postemergence, 31 g ai/ha, scale 0 to 100 (0 no effect, 100 complete control)
# [15] = Postemergence, 62 g ai/ha, scale 0 (no effect) to 100 (complete control)
# [16] = Postemergence, 125 g ai/ha, scale 0 to 100 (0 no effect, 100 complete control)
# [17] = Preemergence, 31 g ai/ha, scale 0 to 100, 0 is no effect and 100 is complete control
# [18] = Preemergence, 62 g ai/ha, scale 0 to 100 (0 no effect, 100 complete control)
# [19] = Preemergence, 125 g ai/ha, scale 0 to 100 (0 no effect, 100 complete control)
# [20] = Preemergence, 16 g ai/ha, scale 0 to 100
# [21] = Postemergence, 500 g ai/ha, 0 to 100 scale (0 no effect, 100 complete control)
# [22] = Preemergence, 125 g ai/ha, 0 to 100 scale where 0 is no effect and 100 is complete control
# [23] = 125 g ai/ha, visual rating on 0 to 100 scale (0 no effect, 100 complete control), approx. 10 days
# [24] = 500 g ai/ha, 0 to 100 scale (0 no effect, 100 complete control)
# [25] = Postemergence, 250 g ai/ha, scale 0 to 100 (0 no effect, 100 complete control)
smiles,measurement,setting,value
CN1CC(c2cccc(C(F)(F)F)c2)C(C(=O)Nc2ccccc2F)C1=O (stereo not shown) [Compound 277],"Plant response rating, Oilseed Rape",[1]; [13],0
same,"Plant response rating, Oilseed Rape",[1]; [14],0
same,"Plant response rating, Oilseed Rape",[1]; [15],0
same,"Plant response rating, Oilseed Rape",[1]; [16],0
same,Oilseed Rape plant response rating,[1]; [17],0
same,Oilseed Rape plant response rating,[1]; [18],0
same,"Plant response rating, Oilseed Rape",[1]; [19],80
same,"Plant response rating, Oilseed Rape",[1]; [20],0
same,"Plant response rating, Crabgrass, Large",[2]; [13],5
same,"Plant response rating, Crabgrass, Large",[2]; [14],15
same,"Plant response rating, Crabgrass, Large",[2]; [15],65
same,"Plant response rating, Crabgrass, Large",[2]; [16],70
same,"Crabgrass, Large plant response rating",[2]; [17],98
same,"Crabgrass, Large plant response rating",[2]; [18],100
same,"Plant response rating, Crabgrass, Large",[2]; [19],100
same,"Plant response rating, Crabgrass, Large",[2]; [20],95
same,"Plant response rating, Ducksalad",[3],100
same,"Plant response rating, Blackgrass",[4]; [13],0
same,"Plant response rating, Blackgrass",[4]; [14],0
same,"Plant response rating, Blackgrass",[4]; [15],0
same,"Plant response rating, Blackgrass",[4]; [16],0
same,Blackgrass plant response rating,[4]; [17],70
same,Blackgrass plant response rating,[4]; [18],70
same,"Plant response rating, Blackgrass",[4]; [19],90
same,"Plant response rating, Blackgrass",[4]; [20],40
same,"Plant response rating, Nutsedge, Yellow",[5]; [13],0
same,"Plant response rating, Nutsedge, Yellow",[5]; [14],10
same,"Plant response rating, Nutsedge, Yellow",[5]; [15],0
same,"Plant response rating, Nutsedge, Yellow",[5]; [16],0
same,"Nutsedge, Yellow plant response rating",[5]; [17],0
same,"Nutsedge, Yellow plant response rating",[5]; [18],20
same,"Plant response rating, Nutsedge, Yellow",[5]; [19],20
same,"Plant response rating, Nutsedge, Yellow",[5]; [20],0
same,"Plant response rating, Barnyardgrass",[6],90
same,"Plant response rating, Foxtail, Giant","[7]; Postemergence, 125 g ai/ha, 0 to 100 scale, 0 is no effect, 100 is complete control",90
same,"Plant response rating, Foxtail, Giant",[7]; [21],90
same,"Plant response rating, Foxtail, Giant",[7]; [22],90
same,"Plant response rating, Foxtail, Giant","[7]; preemergence, 500 g ai/ha, 0 to 100 scale, 0 is no effect and 100 is complete control",90
same,"Plant response rating, Barnyardgrass",[8]; [13],5
same,"Plant response rating, Barnyardgrass",[8]; [14],15
same,"Plant response rating, Barnyardgrass",[8]; [15],70
same,"Plant response rating, Barnyardgrass",[8]; [16],80
same,Barnyardgrass plant response rating,[8]; [17],95
same,Barnyardgrass plant response rating,[8]; [18],98
same,"Plant response rating, Barnyardgrass",[8]; [19],98
same,"Plant response rating, Barnyardgrass",[8]; [20],95
same,"Plant response rating, Rice",[9],0
same,"Plant response rating, Wheat",[10]; [23],60
same,"Plant response rating, Wheat",[10]; [24],70
same,"Plant response rating, Lambsquarters",[11]; [13],25
same,"Plant response rating, Lambsquarters",[11]; [14],30
same,"Plant response rating, Lambsquarters",[11]; [15],40
same,"Plant response rating, Lambsquarters",[11]; [16],40
same,Lambsquarters plant response rating,[11]; [17],20
same,Lambsquarters plant response rating,[11]; [18],75
same,"Plant response rating, Lambsquarters",[11]; [19],80
same,"Plant response rating, Lambsquarters",[11]; [20],0
same,"Plant response rating, Pigweed",[12]; [13],5
same,"Plant response rating, Pigweed",[12]; [14],10
same,"Plant response rating, Pigweed",[12]; [15],10
same,"Plant response rating, Pigweed",[12]; [16],30
same,Pigweed plant response rating,[12]; [17],10
same,Pigweed plant response rating,[12]; [18],35
same,"Plant response rating, Pigweed",[12]; [19],40
same,"Plant response rating, Pigweed",[12]; [20],0
CN1CC(c2ccc(F)c(F)c2)C(C(=O)Nc2ccccc2F)C1=O (stereo not shown) [Compound 302],"Plant response rating, Oilseed Rape",[1]; [14],0
same,"Plant response rating, Oilseed Rape",[1]; [15],0
same,"Plant response rating, Oilseed Rape",[1]; [16],40
same,"Plant response rating, Oilseed Rape",[1]; [25],0
same,Oilseed Rape plant response rating,[1]; [17],0
same,Oilseed Rape plant response rating,[1]; [18],0
same,"Plant response rating, Oilseed Rape",[1]; [19],0
same,"Plant response rating (scale of 0 to 100), Oilseed Rape","[1]; Preemergence, 250 g ai/ha",10
same,"Plant response rating, Crabgrass, Large",[2]; [14],0
same,"Plant response rating, Crabgrass, Large",[2]; [15],50
same,"Plant response rating, Crabgrass, Large",[2]; [16],70
same,"Plant response rating, Crabgrass, Large",[2]; [25],85
same,"Crabgrass, Large plant response rating",[2]; [17],95
same,"Crabgrass, Large plant response rating",[2]; [18],98
same,"Plant response rating, Crabgrass, Large",[2]; [19],100
same,"Plant response rating (scale of 0 to 100), Crabgrass, Large","[2]; Preemergence, 250 g ai/ha",100
same,"Plant response rating, Ducksalad",[3],98
same,"Plant response rating, Blackgrass",[4]; [14],0
same,"Plant response rating, Blackgrass",[4]; [15],0
same,"Plant response rating, Blackgrass",[4]; [16],0
same,"Plant response rating, Blackgrass",[4]; [25],5
same,Blackgrass plant response rating,[4]; [17],0
same,Blackgrass plant response rating,[4]; [18],30
same,"Plant response rating, Blackgrass",[4]; [19],60
same,"Plant response rating (scale of 0 to 100), Blackgrass","[4]; Preemergence, 250 g ai/ha",85
same,"Plant response rating, Nutsedge, Yellow",[5]; [14],0
same,"Plant response rating, Nutsedge, Yellow",[5]; [15],0
same,"Plant response rating, Nutsedge, Yellow",[5]; [16],0
same,"Plant response rating, Nutsedge, Yellow",[5]; [25],20
same,"Nutsedge, Yellow plant response rating",[5]; [17],0
same,"Nutsedge, Yellow plant response rating",[5]; [18],0
same,"Plant response rating, Nutsedge, Yellow",[5]; [19],0
same,"Plant response rating (scale of 0 to 100), Nutsedge, Yellow","[5]; Preemergence, 250 g ai/ha",10
same,"Plant response rating, Barnyardgrass",[6],80
same,"Plant response rating, Foxtail, Giant","[7]; Postemergence, 125 g ai/ha, visual rating on 0 to 100 scale (0 no effect, 100 complete control), approx. 10 days",80
same,"Plant response rating, Foxtail, Giant",[7]; [21],80
same,"Plant response rating, Foxtail, Giant",[7]; [22],90
same,"Foxtail, Giant plant response rating","[7]; Preemergence, 500 g ai/ha, visual rating on 0 to 100 scale (0 no effect, 100 complete control)",90
same,"Plant response rating, Barnyardgrass",[8]; [14],0
same,"Plant response rating, Barnyardgrass",[8]; [15],20
same,"Plant response rating, Barnyardgrass",[8]; [16],40
same,"Plant response rating, Barnyardgrass",[8]; [25],90
same,Barnyardgrass plant response rating,[8]; [17],90
same,Barnyardgrass plant response rating,[8]; [18],85
same,"Plant response rating, Barnyardgrass",[8]; [19],100
same,"Plant response rating (scale of 0 to 100; 0 is no effect, 100 is complete control), Barnyardgrass","[8]; Preemergence, 250 g ai/ha",100
same,"Plant response rating, Rice",[9],0
same,"Plant response rating, Wheat",[10]; [23],0
same,"Plant response rating, Wheat",[10]; [24],50
same,"Plant response rating, Lambsquarters",[11]; [14],10
same,"Plant response rating, Lambsquarters",[11]; [15],20
same,"Plant response rating, Lambsquarters",[11]; [16],60
same,"Plant response rating, Lambsquarters",[11]; [25],70
same,Lambsquarters plant response rating,[11]; [17],0
same,Lambsquarters plant response rating,[11]; [18],0
same,"Plant response rating, Lambsquarters",[11]; [19],60
same,"Plant response rating (scale of 0 to 100), Lambsquarters","[11]; Preemergence, 250 g ai/ha",65
same,"Plant response rating, Pigweed",[12]; [14],15
same,"Plant response rating, Pigweed",[12]; [15],20
same,"Plant response rating, Pigweed",[12]; [16],20
same,"Plant response rating, Pigweed",[12]; [25],30
same,Pigweed plant response rating,[12]; [17],0
same,Pigweed plant response rating,[12]; [18],20
same,"Plant response rating, Pigweed",[12]; [19],25
same,"Plant response rating (scale of 0 to 100), Pigweed","[12]; Preemergence, 250 g ai/ha",0

# Reference: patent publication US10294202B2, “Pyrrolidinones as herbicides” (FMC Corporation, priority 2013, dated 2019)
